Results from patent US9034874B2, “Carbamate/urea derivatives” (NOVARTIS AG, priority 2012, dated 2015).

Key:
[1] = test system: wakefulness in rats; test: Effects on wakefulness (EEG/EMG recordings); format: in vivo, rat; conditions: oral, first 4 hours after administration
Description: Animals: Male Sprague-Dawly rats (280-320 g) were housed individually under an ambient temperature of 22±0.5° C. with a relative humidity of 60±2% and an automatically controlled 12-h light/12-h dark cycle (light on at 07:00, illumination intensity 100 lux). The animals had free access to food and water.
EEG recording set up, Polygraphic Recordings and Vigilance State Analysis: Under pentobarbital anesthesia (50 mg/kg, i.p.), rats were chronically implanted with EEG and electromyogram (EMG) electrodes for polysomnographic recordings (Huang et al, J Neurosci, 23, 5975-5983, 2003). Two stainless steel screws (1 mm in diameter) EEG electrodes (the first screw: anteroposterior (AP), +2 mm; left-right (LR), −2 mm; and the second: AP, −2 mm; LR, −2 mm, AP from bregma, LR from lambda) and a reference electrode (opposite to EEG screw side, AP, +3 mm; LR, 3 mm) were surgically implanted and 3 stainless steel screws for anchorage to the skull. Two insulated stainless steel, Teflon-coated wires were bilaterally placed into both trapezius muscles and served as EMG electrodes for rats. All electrodes were attached to a micro connector and fixed to the skull with dental cement. […]
For the study of spontaneous sleep-wakefulness cycles, each animal was recorded for 24 h beginning at 19:00 P.M., the offset of the light period. The animals then entered the pharmacological phase of the study, in which sleep-wakefulness parameters were recorded for 72 h. […]
Cortical EEG and EMG signals were amplified, filtered (EEG, 0.5-30 Hz; EMG, 20-200 Hz), digitized at a sampling rate of 128 Hz, and recorded by using SLEEPSIGN (Kissei Comtec, Nagano, Japan). When complete, polygraphic recordings were automatically scored offline by 4-sec epochs as wake, REM, and NREM sleep by SleepSign according to standard criteria (Huang et al, Nat Neurosci, 8, 858-859, 2005). […]
Time-course changes in the amounts of sleep-wake, sleep/wake stage transition number, as well as number and duration of sleep/wake bouts in light/dark phases, were analyzed by the paired t test, with each animal serving as its own control. […]

[2] = target: human H3 receptors (Homo sapiens (Human), UniProt Q9Y5N1); test: Affinity assessment: displacement of [3H]-N-α-Methylhistamine binding to membranes; conditions: membranes containing human H3 receptors, radioligand [3H]-N-α-Methylhistamine
Description: The affinity of compounds of the invention to the H3 receptor can be assessed by measuring displacement of binding of the radioligand [3H]-N-α-Methylhistamine (PerkinElmer, #NET1027250UC) to membranes containing human H3 receptors (PerkinElmer, #ES-392-M400UA; GenBank: NM_007232.2; Hill S J et al, International Union of Pharmacology XIII. Classification of histamine receptors, Pharmacol Rev, 49(3), 253-278, 1997).
2. Compound serial dilution: Dilution was performed by BioTek Precision on compound dilution plate. Compound concentrations start at 5 or 10 μM, 10 point dose titrations with 3- or 5-fold serial dilutions.
3. Preparation of 2× membrane solution (25 ml): 1.25 ml human Histamine H3 receptor stock, 23.75 ml assay buffer.
4. Preparation of 2× solution of [3H]-N-α-methylhistamine (25 ml): 4.27 μl [3H]-N-α-methylhistamine stock, 25 ml assay buffer.
5. Assemble binding reaction: (a) transfer 1 μl of compound solution, 1 μl 100% DMSO and 1 μl 1 M (R)(−)-α-Methylhistamine (Sigma, #H128) to the reaction plate at room temperature, (b) transfer 50 μl of 2× protein solution to reaction plate, (c) transfer 49 μl of 2× radioligand solution to reaction plate (Corning® 96 well EIA/RIA plate; Sigma, #CLS3797).
6. Cover the reaction plate with a TopSeal™-A film (Perkin Elmer, #6005185) and incubate at 28° C. for 120 min. Equilibrate Zeba Spin Desalting Plates (Thermo Scientific, #89808) to room temperature for 120 min.
7. Remove the sealing material from the bottom of the filtration plate. Place the plate on a wash plate. Centrifuge at 1000 g for 2 min to remove the storage buffer at room temperature.
8. Transfer 70 μl binding reaction from reaction plate into filtration plates. Place the filtration plates on top of collection plate. Centrifuge the plate assembly at 1000 g for 2 min to collect the protein with bound radioligand. Add 200 μl of Microscint-40 (PerkinElmer, #6013641-1L) to each well of the collection plate. Cover the plates with TopSeal™-A film.
9. Read the plates on Wallac Microbeta Trilux 2450, Instrument settings: counting mode: CPM, counting time: 2 min.
10. Data analysis: GraphPad Prism: log (compound concentration) vs. response; variable slope. The Ki is calculated based on Chang and Prusoff: Ki=IC50/{1+([radioligand]/Kd)}

Chain of human H3 receptors (Q9Y5N1 whole entry): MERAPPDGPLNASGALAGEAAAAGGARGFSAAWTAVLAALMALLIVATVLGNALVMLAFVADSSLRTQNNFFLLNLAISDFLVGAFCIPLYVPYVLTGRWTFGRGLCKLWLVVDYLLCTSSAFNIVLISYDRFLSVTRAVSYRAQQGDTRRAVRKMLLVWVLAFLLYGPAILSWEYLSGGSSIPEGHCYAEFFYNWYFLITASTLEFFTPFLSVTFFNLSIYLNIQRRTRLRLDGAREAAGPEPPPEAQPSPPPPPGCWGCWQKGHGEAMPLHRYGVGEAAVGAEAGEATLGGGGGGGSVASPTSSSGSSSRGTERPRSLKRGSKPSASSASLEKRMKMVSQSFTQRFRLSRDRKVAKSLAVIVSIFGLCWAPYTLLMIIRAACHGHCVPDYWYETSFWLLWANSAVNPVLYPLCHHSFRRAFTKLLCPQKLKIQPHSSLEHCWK

Ki [2] | SMILES | % increase in wakefulness at 10 mg [1]
26 nM | O=C(OC1CCN(c2ccc(=O)[nH]n2)CC1)N1CCN(C2CCC2)CC1 [Example 1.1, 1-(6-oxo-1,6-dihydropyridazin-3-yl)piperidin-4-yl 4-cyclobutylpiperazine-1-carboxylate] | 42.1%
31 nM | CC(C)N1CCN(C(=O)OC2CCN(c3ccc(=O)n(C)n3)CC2)CC1 [Example 1.2, 1-(1-methyl-6-oxo-1,6-dihydropyridazin-3-yl)piperidin-4-yl 4-isopropylpiperazine-1-carboxylate] | 48.8%
10 nM | CC(C)N1CCN(C(=O)OC2CCN(c3ccc(=O)[nH]n3)CC2)CC1 [Example 1.3, 1-(6-oxo-1,6-dihydropyridazin-3-yl)piperidin-4-yl 4-isopropylpiperazine-1-carboxylate] | 19.1%
